Assay results as given in ChEMBL document CHEMBL4400520, “Benzofuran-isatin-imine hybrids tethered via different length alkyl linkers: Design, synthesis and in vitro evaluation of anti-tubercular and anti-bacterial activities as well as cytotoxicity” (Eur J Med Chem, 2019).
Values after ≈ are worked out from the molar mass of the structure shown.

Tests used:
[1] = tested on: Mycobacterium tuberculosis; experiment: Antitubercular activity against Mycobacterium tuberculosis H37Rv; assay type: functional
[2] = (§1) Cytotoxicity against African green monkey Vero cells assessed as reduction in cell viability after 72 hrs by MTT assay; assay type: cell-based; conditions: chlorocebus sabaeus, Vero cells
[3] = Selectivity index, ratio of CC50 for African green monkey Vero cells to MIC for Mycobacterium tuberculosis H37Rv; assay type: toxicity; conditions: read-out: Selectivity Index
[4] = tested on: Staphylococcus epidermidis; experiment: Antibacterial activity against methicillin-sensitive Staphylococcus epidermidis; assay type: functional
[5] = tested on: Staphylococcus epidermidis; experiment: Antibacterial activity against methicillin-resistant Staphylococcus epidermidis; assay type: functional
[6] = tested on: Staphylococcus aureus; experiment: Antibacterial activity against methicillin-sensitive Staphylococcus aureus; assay type: functional
[7] = tested on: Staphylococcus aureus; experiment: Antibacterial activity against methicillin-resistant Staphylococcus aureus; assay type: functional
[8] = tested on: Enterococcus faecalis; experiment: Antibacterial activity against Enterococcus faecalis; assay type: functional
[9] = tested on: Enterococcus faecium; experiment: Antibacterial activity against Enterococcus faecium; assay type: functional
[10] = tested on: Escherichia coli; experiment: Antibacterial activity against Escherichia coli; assay type: functional
[11] = tested on: Klebsiella pneumoniae; experiment: Antibacterial activity against Klebsiella pneumoniae; assay type: functional
[12] = tested on: Pseudomonas aeruginosa; experiment: Antibacterial activity against Pseudomonas aeruginosa ATCC 27853; assay type: functional
[13] = tested on: Acinetobacter calcoaceticus; experiment: Antibacterial activity against Acinetobacter calcoaceticus; assay type: functional
[14] = tested on: Enterobacter cloacae; experiment: Antibacterial activity against Enterobacter cloacae; assay type: functional
[15] = tested on: Klebsiella aerogenes; experiment: Antibacterial activity against Enterobacter aerogenes; assay type: functional
[16] = tested on: Proteus mirabilis; experiment: Antibacterial activity against Proteus mirabilis; assay type: functional
[17] = tested on: Citrobacter freundii; experiment: Antibacterial activity against Citrobacter freundii; assay type: functional
[18] = tested on: Vero; experiment: as §1; assay type: cell-based; conditions: chlorocebus sabaeus, vero, 72 h
[19] = Cmax in ICR mouse at 25 mg/kg, po; assay type: ADME, organism-based; set-up: dose 25 mg/kg, route oral; conditions: in vivo
[20] = Half life in ICR mouse at 25 mg/kg, po; assay type: ADME, organism-based; conditions: in vivo
[21] = Tmax in ICR mouse at 25 mg/kg, po; assay type: ADME, organism-based; conditions: in vivo
[22] = AUC (0 to infinity) in ICR mouse at 25 mg/kg, po; assay type: ADME, organism-based; set-up: dose 25 mg/kg, time infinity, route oral; conditions: in vivo
[23] = Metabolic stability in mouse assessed as half life; assay type: ADME

SMILES | MIC [1] [µg/mL] | CC50 at 72 h [2] [µg/mL] | selectivity ratio [3] | MIC90 [4] [µg/mL] | MIC90 [5] [µg/mL] | MIC90 [6] [µg/mL] | MIC90 [7] [µg/mL] | MIC90 [8] [µg/mL] | MIC90 [9] [µg/mL] | MIC90 [10] [µg/mL] | MIC90 [11] [µg/mL] | MIC90 [12] [µg/mL] | MIC90 [13] [µg/mL] | MIC90 [14] [µg/mL] | MIC90 [15] [µg/mL] | MIC90 [16] [µg/mL] | MIC90 [17] [µg/mL] | further results
CCOC(=O)c1c(-c2ccccc2)oc2ccc(OCCCN3C(=O)/C(=N\OC)c4cc(OC)ccc43)cc12 | < 0.016 | 64 (≈ 121 µM) | > 4000 | 0.5 (≈ 0.946 µM) | 0.5 (≈ 0.946 µM) | 1 (≈ 1.89 µM) | 4 (≈ 7.57 µM) | 1 (≈ 1.89 µM) | 16 (≈ 30.3 µM) | 0.125 (≈ 0.236 µM) | 0.5 (≈ 0.946 µM) | 1 (≈ 1.89 µM) | 2 (≈ 3.78 µM) | 0.5 (≈ 0.946 µM) | 2 (≈ 3.78 µM) | 2 (≈ 3.78 µM) | 0.5 (≈ 0.946 µM) | 
CCO/N=C1\C(=O)N(CCCCOc2ccc3oc(-c4ccc(OC)cc4)c(C(=O)OCC)c3c2)c2ccc(F)cc21 | 0.156 (≈ 0.271 µM) |  | 410 | 1 (≈ 1.74 µM) | 16 (≈ 27.8 µM) | 8 (≈ 13.9 µM) | 4 (≈ 6.96 µM) | 4 (≈ 6.96 µM) | 32 (≈ 55.7 µM) | 0.5 (≈ 0.87 µM) | 2 (≈ 3.48 µM) | 8 (≈ 13.9 µM) | 8 (≈ 13.9 µM) | 0.25 (≈ 0.435 µM) | 0.5 (≈ 0.87 µM) | 0.25 (≈ 0.435 µM) | 0.5 (≈ 0.87 µM) | CC50 [18]: 32 µg/mL (≈ 55.7 µM)
CCOC(=O)c1c(-c2ccc(F)cc2)oc2ccc(OCCCCCCN3C(=O)C(=O)c4cc(F)ccc43)cc12 | < 0.016 | 512 (≈ 935 µM) | > 32000 | 1 (≈ 1.83 µM) | 4 (≈ 7.31 µM) | 1 (≈ 1.83 µM) | 2 (≈ 3.65 µM) | 2 (≈ 3.65 µM) | 16 (≈ 29.2 µM) | 0.25 (≈ 0.457 µM) | 1 (≈ 1.83 µM) | 2 (≈ 3.65 µM) | 4 (≈ 7.31 µM) | 0.5 (≈ 0.913 µM) | 0.125 (≈ 0.228 µM) | 0.06 (≈ 0.11 µM) | 0.06 (≈ 0.11 µM) | 
CNC(=O)c1c(-c2ccc(O)cc2)oc2ccc(O)c(CN3CCCCC3)c12 | < 0.016 | > 1020 | > 64000 |  |  |  |  |  |  |  |  |  |  |  |  |  |  | Cmax [19]: 5060 ng/mL; half-life [20]: 9.88 h; Tmax [21]: 3.46 h; AUC(0-inf) [22]: 39300 ng·h/mL; half-life [23]: > 1 h
CCOC(=O)c1c(-c2ccc(OC)cc2)oc2ccc(OCCCCCN3C(=O)C(=O)c4cc(F)ccc43)cc12 | 0.064 (≈ 0.117 µM) | 512 (≈ 938 µM) | 8000 | 1 (≈ 1.83 µM) | 8 (≈ 14.7 µM) | 2 (≈ 3.67 µM) | 2 (≈ 3.67 µM) | 4 (≈ 7.33 µM) | 64 (≈ 117 µM) | 0.25 (≈ 0.458 µM) | 2 (≈ 3.67 µM) | 8 (≈ 14.7 µM) | 8 (≈ 14.7 µM) | 1 (≈ 1.83 µM) | 1 (≈ 1.83 µM) | 0.25 (≈ 0.458 µM) | 1 (≈ 1.83 µM) | 
CCOC(=O)c1c(-c2ccc(OC)cc2)oc2ccc(OCCCN3C(=O)/C(=N\OC)c4cc(OC)ccc43)cc12 | < 0.016 | 128 (≈ 229 µM) | > 8000 | 0.25 (≈ 0.448 µM) | 2 (≈ 3.58 µM) | 4 (≈ 7.16 µM) | 2 (≈ 3.58 µM) | 1 (≈ 1.79 µM) | 8 (≈ 14.3 µM) | 0.25 (≈ 0.448 µM) | 1 (≈ 1.79 µM) | 1 (≈ 1.79 µM) | 4 (≈ 7.16 µM) | 0.25 (≈ 0.448 µM) | 0.125 (≈ 0.224 µM) | 0.25 (≈ 0.448 µM) | 0.5 (≈ 0.895 µM) | 
